Common to all, as to format: functional, cell-based
One experiment deals with HepG2. The experiment in a line: Cytotoxicity against human HepG2 cells.
The next experiment relates to A549. The experiment in a line: Cytotoxicity against human A549 cells.
In a further experiment the test system is MDA-MB-231. The experiment is described as follows: Cytotoxicity against human MDA-MB-231 cells.

These results are taken from ChEMBL document CHEMBL6114954, “Design, synthesis and cytotoxic activity of novel lipophilic cationic derivatives of diosgenin and sarsasapogenin” (Bioorg Med Chem Lett, 2025).

For orientation: IC50 means the concentration at which inhibition is half-maximal. The low end stands for inhibition by little substance, the high end for a need for much substance. Turning to `CC(=O)O[C@H]1CC[C@@]2(C)C(=CC[C@H]3[C@@H]4C[C@@H]5O[C@H](CC[C@@H](C)COC(=O)CCCCC[P+](c6ccccc6)(c6ccccc6)c6ccccc6)[C@@H](C)[C@@H]5[C@@]4(C)CC[C@@H]32)C1`, the values for the IC50 in the experiment with HepG2, in the experiment on A549 and with MDA-MB-231 were 30.1 µM, 5.63 µM and 36.6 µM, respectively.
The corresponding values for `CC1CC[C@@]2(OC1)O[C@H]1C[C@H]3[C@@H]4CC=C5C[C@@H](OC(=O)CC[P+](c6ccccc6)(c6ccccc6)c6ccccc6)CC[C@]5(C)[C@H]4CC[C@]3(C)[C@H]1[C@@H]2C` (stereo not given in full) are 8.28 µM, 1.19 µM and 7.92 µM.
The corresponding values for `CC[N+]1(CCCC(=O)O[C@H]2CC[C@@]3(C)C(=CC[C@H]4[C@@H]5C[C@@H]6O[C@]7(CCC(C)CO7)[C@@H](C)[C@@H]6[C@@]5(C)CC[C@@H]43)C2)CCOCC1` (stereo not given in full) are 27.9 µM, 29.1 µM and 41.6 µM.
The corresponding values for `C[C@@H]1CC[C@@]2(OC1)O[C@H]1C[C@H]3[C@@H]4CC[C@@H]5C[C@@H](O)CC[C@]5(C)[C@H]4CC[C@]3(C)[C@H]1[C@@H]2C` are greater than 50 µM, greater than 50 µM and greater than 50 µM.
With `CC[N+]1(CCCC(=O)OC[C@H](C)CC[C@H]2O[C@H]3C[C@H]4[C@@H]5CC=C6C[C@@H](OC(C)=O)CC[C@]6(C)[C@H]5CC[C@]4(C)[C@H]3[C@@H]2C)CCCC1`, the IC50 in the experiment with HepG2 is greater than 50 µM; with A549, 20.7 µM; in the experiment with MDA-MB-231, greater than 50 µM.
`CC(=O)O[C@H]1CC[C@@]2(C)C(=CC[C@H]3[C@@H]4C[C@@H]5O[C@H](CC[C@@H](C)COC(=O)C[P+](c6ccccc6)(c6ccccc6)c6ccccc6)[C@@H](C)[C@@H]5[C@@]4(C)CC[C@@H]32)C1`: the IC50 amounted to 25.4 µM with HepG2, 10.8 µM with A549 and 32 µM in the experiment with MDA-MB-231.
The corresponding values for `CC[N+]1(CCCC(=O)O[C@H]2CC[C@@]3(C)[C@H](CC[C@@H]4[C@@H]3CC[C@]3(C)[C@@H]5[C@H](C[C@@H]43)O[C@]3(CCC(C)CO3)[C@H]5C)C2)CCNCC1` (stereo not given in full) are greater than 50 µM, 26.1 µM and greater than 50 µM.
Turning to `CC1CC[C@@]2(OC1)O[C@H]1C[C@H]3[C@@H]4CC[C@@H]5C[C@@H](OC(=O)CC[P+](c6ccccc6)(c6ccccc6)c6ccccc6)CC[C@]5(C)[C@H]4CC[C@]3(C)[C@H]1[C@@H]2C` (stereo not given in full), the IC50 in the experiment on HepG2 was 3.34 µM; in the experiment on A549, 1.09 µM; in the experiment with MDA-MB-231, 4.26 µM.
As to `CC[N+]1(CCCC(=O)OC[C@H](C)CC[C@H]2O[C@H]3C[C@H]4[C@@H]5CC=C6C[C@@H](OC(C)=O)CC[C@]6(C)[C@H]5CC[C@]4(C)[C@H]3[C@@H]2C)CCNCC1`, the IC50 was 34.6 µM in the experiment with HepG2, 13.7 µM with A549 and 36.4 µM in the experiment on MDA-MB-231.
As to `CC[N+]1(CCCC(=O)O[C@H]2CC[C@@]3(C)C(=CC[C@H]4[C@@H]5C[C@@H]6O[C@]7(CCC(C)CO7)[C@@H](C)[C@@H]6[C@@]5(C)CC[C@@H]43)C2)CCCCC1` (stereo not given in full), the IC50 is 19.2 µM in the experiment with HepG2, 15.4 µM with A549 and 40.5 µM with MDA-MB-231.
Turning to `CC[N+]1(CCCC(=O)O[C@H]2CC[C@@]3(C)[C@H](CC[C@@H]4[C@@H]3CC[C@]3(C)[C@@H]5[C@H](C[C@@H]43)O[C@]3(CCC(C)CO3)[C@H]5C)C2)CCCCC1` (stereo not given in full), the IC50 in the experiment on HepG2 was determined as 19.9 µM; in the experiment on A549 it was 14.6 µM; in the experiment on MDA-MB-231, 37.8 µM.
In the case of `C[C@@H]1CC[C@@]2(OC1)O[C@H]1C[C@H]3[C@@H]4CC=C5C[C@@H](O)CC[C@]5(C)[C@H]4CC[C@]3(C)[C@H]1[C@@H]2C` [DISOGENIN], the IC50 with HepG2 and in the experiment on MDA-MB-231 was greater than 50 µM throughout.
